From BindingDB's records for doi:10.1021/jm00076a021 (New York University, 1994)

Assay: Binding affinity against sigma receptor in bovine cerebellum using 2.0 nM [3H]haloperidol in the presence of 25 nM unlabeled spiperone

Q: With `O=C(CCN1CC=C(c2ccc(Cl)cc2)CC1)c1ccccc1Cl` [1-(2-Chloro-phenyl)-3-[4-(4-chloro-phenyl)-3,6-dihydro-2H-pyridin-1-yl]-propan-1-one] as the compound, how does the IC50 read?
A: The IC50 was 105 nM.
